Test results: patent publication US20040023841A1, “Combinatorial method for rapid screening of drug delivery formulations” (priority 2003, published 2004)

Columns and labels:
[1] = Loss of drug from donor hole of Teflon disc placed on stratum corneum; format: in vitro ADME; details: drug in PBS, 2 mm hole, human SC, 24 hours contact, liquid scintillation counting
Procedure: (§1) The following experiments were performed to assess the usefulness of a method, which determines the loss of a test substance from a formulation over time. Experiments were performed to assess whether this method can be used for estimation of skin permeability to drugs. For these studies, phosphate buffered saline was used as a model formulation. […] Ten holes were drilled into the disc and each hole was about 2 mm wide. The disc was then placed on the SC prepared from human skin. Solutions of nine different drugs in PBS were placed in various holes. The concentration of drugs in the solutions were measured at time zero. The drugs were allowed to remain in contact with the skin for 24 hours. Samples were taken from the holes at the end of 24 hours and then analyzed using a liquid scintillation counter. The amount of drug lost from the donor hole was calculated. Permeability measurements of the same drugs were performed using conventional methods that use macroscopic diffusion cells.

[2] = Permeability measured by traditional experiments (macroscopic diffusion cells); format: in vitro ADME
Procedure: as §1

[3] = Transport enhancement of radiolabeled mannitol into skin, Franz diffusion cells; format: in vitro ADME, pig; details: Franz diffusion cell, 0-2% (w/v) in PBS, 7 hrs
Procedure: The skin was incubated in the cells for 7 hrs. At the end of 7 hrs the skin was removed from the cell and dissolved in 0.5M Solvable, a gel and tissue solubilizer from Packard Chemicals, at 60° C. overnight. […] The enhancement of transdermal mannitol transport due to the formulations was calculated using the equation, E^T=CF/CC, where CF is the radiation count for a particular formulation and CC is the radiation count for the control which in this case is simply PBS with radiolabeled mannitol but no surfactant.

[4] = Conductivity enhancement of skin, Franz diffusion cells; format: in vitro ADME, pig; details: Franz diffusion cell, 0-2% in PBS, 24 hours
Procedure: A small stir bar and an Ag/AgCl disk electrode ([…] In-vivo Metrics) were added to the receiver chamber. In addition, the receiver chamber was filled with PBS. Pigskin was thawed and was mounted on the diffusion cell with the epidermis side facing up. The donor and the receiver compartments were clamped making sure there were no bubbles in the receiver chamber. Before each experiment, structural integrity of the skin was confirmed by measuring its conductivity. Skin samples with a resistivity less than 20 Kohm-cm^2 were assumed to be defective and not used. Skin conductivity was measured throughout the experiment to assess the effect of the formulation on skin structure. […] Each formulation was prepared in PBS. Current across the skin was measured over a period of 24 hours. The enhancement of skin conductivity was calculated as [formula] where It is the current across skin at time t, I0 being the current across skin at time 0.

[5] = Conductivity enhancement of skin, 10x10 High Throughput array; format: in vitro ADME, pig; details: 10x10 array, 0-2% (w/v) in PBS, up to 25 hrs, n=4
Procedure: This array is built as a pattern of 10×10 matrix. This corresponds to 100 test wells, each well 3 mm in diameter. The formulations to be tested are filled in the donor compartments. Each formulation is filled in 4 wells and each well can hold about 85 μL of the test formulation. Two 22 G 1½ needles are used as electrodes to measure current across the skin. One needle is stuck into the dermis and acts as the common electrode while the other needle is sequentially placed in each well to measure current. Current measurements are made across the skin periodically over a span of 25 hrs. […] The conductivity enhancement for a given formulation at time ‘t’ is then calculated as [formula] where It is the current across the skin at time ‘t’ and I0 is the current across the skin at time 0. […] The error bars correspond to the standard deviations. (n=4).

[6] = Transport enhancement of radiolabelled mannitol into skin, 5x5 High Throughput array; format: in vitro ADME, pig; details: 5x5 array, 0-2% (w/v) in PBS, 7 hrs
Procedure: Screening of the formulations is performed using pigskin. The wells in the receiver plate are filled with PBS. The skin is placed on the receiver plate with the stratum corneum (SC) facing the donor plate. The donor plate is then placed on the skin and the entire assembly is clamped tightly using four screws. A mild vacuum is then applied to remove any excess PBS that may be pushed in to the wells in the receiver plate. Radiolabelled mannitol was added to all formulations prepared in PBS at a concentration of 10 μCi/mL. The donor compartments were filled with these formulations each formulation was filled in 1 well. The skin was then incubated for 7 hrs. The solutions from the donor compartment were removed at the end of incubation period. The skin was then gently rinsed to free any mannitol that could be sticking to the surface of the skin. The skin was then cut and dissolved in 0.5 M Solvable, a tissue and gel solubilizer from Packard Chemicals at 60° C. overnight. […] The transport enhancement at different test formulations is then calculated as [formula] where CF is the radiation count for a particular test formulation and CC is the radiation count for the control i.e. PBS alone without any enhancer.

[7] = Transport enhancement of radiolabelled mannitol into skin, 10x10 High Throughput array; format: in vitro ADME, pig; details: 10x10 array, 0-2% (w/v) in PBS, 7 hrs
Procedure: Radiolabelled mannitol was added to all formulations prepared in PBS at a concentration of 10 μCi/mL. The donor compartments were filled with these formulations with each formulation filled in 4 wells. The skin was then incubated for 7 hrs. The solutions from the donor compartment were removed at the end of incubation period. The skin was then gently rinsed to free any mannitol that could be sticking to the surface of the skin. The skin was then cut and dissolved in 0.5 M Solvable, a tissue and gel solubilizer from Packard Chemicals, at 60° C. overnight. […] The transport enhancement at different test formulations is then calculated as [formula] where CF is the radiation count for a particular test formulation and CC is the radiation count for the control i.e. PBS alone without any enhancer.

[8] = Conductivity enhancement of skin, 5x5 High Throughput array; format: in vitro ADME, pig; details: 5x5 array, 0-2% (w/v) in PBS, up to 25 hrs
From the text: This array is built as a pattern of a 5×5 matrix. This corresponds to 25 test wells, each well 7.5 mm in diameter. It consists of two polycarbonate plates each 0.5 inches thick. The top plate (donor plate) has 25 through holes (wells), diameter 7.5 mm, drilled in it, each of which acts as an isolated donor chamber similar to the donor chamber in the Franz diffusion cells. The bottom plate (receiver plate) also has holes (wells) drilled in a similar pattern as the donor plate and simulates the receiver compartment of the diffusion cells. All wells are isolated from each other for all practical purposes and each well acts like an individual diffusion cell. The skin is placed between the donor and receiver plate and the plate assembly is clamped using four screws as shown in the figure.
Screening of the formulations is performed using pigskin. The wells in the receiver plate are filled with PBS. The skin is placed on the receiver plate with the stratum corneum (SC) facing the donor plate. The donor plate is then placed on the skin and the entire assembly is clamped tightly using four screws. […]
The formulations to be tested are filled in the donor compartments. […] The current, measured at 100 Hz and 143 mVpp, varied between 1 μA at time 0 to 25-30 μA at time 25 hrs.
The conductivity enhancements at time t″ is then calculated as [formula] […]

| SMILES | % Drug Lost from the Hole [1] | Papp [2] | further results |
| --- | --- | --- | --- |
| C[C@]12CCC(=O)C=C1CC[C@@H]1[C@@H]2[C@@H](O)C[C@]2(C=O)[C@@H](C(=O)CO)CC[C@@H]12 [Aldosterone] | 9% | 0.00833 ×10⁻⁶ cm/s |  |
| CCCCCCO [Hexanol] | 31% |  |  |
| c1ccc2ccccc2c1 [Napthalene] | 47% |  |  |
| CCCCCCCCCCCCCCCCCCO [Octadecanol] | 77% | 25 ×10⁻⁶ cm/s |  |
| CCCCCCCCO [Octanol] | 47% | 19.4 ×10⁻⁶ cm/s |  |
| CC(=O)[C@H]1CC[C@H]2[C@@H]3CCC4=CC(=O)CC[C@]4(C)[C@H]3CC[C@]12C [Progesterone] | 44% | 5.56 ×10⁻⁶ cm/s |  |
| CCCCCCCCCCCCOS(=O)(=O)[O-].[Na+] [SLS, Sodium Lauryl Sulfate] |  |  | Transport enhancement (amount of mannitol transported, CF/CC) [3]: increases monotonously as a function of the surfactant concentration; Conductivity enhancement (It/I0) [4]: increases as a function of the SLS or TDAB concentration and reaches a maximum; Conductivity enhancement (It/I0) [5]: increases with increasing SLS or TDAB concentration and reaches a maximum after which it starts decreasing; Transport enhancement (amount of mannitol transported, CF/CC) [6]: increases monotonously as a function of the surfactant concentration; Transport enhancement (amount of mannitol transported, CF/CC) [7]: increases monotonously as a function of the surfactant concentration; Conductivity enhancement (It/I0) [8]: increases as a function of the SLS or TDAB concentration and reaches a maximum |
| C[C@]12CC[C@H]3[C@@H](CCC4=CC(=O)CC[C@@]43C)[C@@H]1CC[C@@H]2O [Testosterone] | 24% |  |  |
